Experimental data from ChEMBL document CHEMBL1136995, “2,6-Diphenylthiazolo[3,2-b][1,2,4]triazoles as telomeric G-quadruplex stabilizers” (Bioorg Med Chem Lett, 2009).
Active and inactive are the calls of the source. The calls are words filed in the database; no cut-off is given here.

Assays:
Format in all cases: nucleic-acid assay
Nucleic Acid [1] = assay: Binding affinity to G-quadruplex F21T DNA assessed as change in melting temperature at 3 uM under Na+ ionic conditions by FRET assay
Nucleic Acid [2] = assay: Binding affinity to G-quadruplex F21T DNA assessed as change in melting temperature at 3 uM under K+ ionic conditions by FRET assay
Nucleic Acid [3] = assay: Binding affinity to G-quadruplex F21T DNA assessed as quadruplex stabilization at 3 uM by FRET assay in presence of duplex ds26 oligonucleotide
Nucleic Acid [4] = assay: Binding affinity to G-quadruplex F21T DNA assessed as change in melting temperature at 0.3 uM under K+ ionic conditions by FRET assay
Nucleic Acid [5] = assay: Binding affinity to G-quadruplex F21T DNA assessed as change in melting temperature at 0.1 uM under K+ ionic conditions by FRET assay
Nucleic Acid [6] = assay: Binding affinity to G-quadruplex F21T DNA assessed as change in melting temperature at 0.6 uM under K+ ionic conditions by FRET assay
Nucleic Acid [7] = assay: Binding affinity to G-quadruplex F21T DNA assessed as change in melting temperature at 0.8 uM under K+ ionic conditions by FRET assay

Structure (SMILES) | ΔTm (Nucleic Acid [1]) | ΔTm (Nucleic Acid [2]) | Activity (Nucleic Acid [3]) | also measured
CCOC(=O)c1ccc(-c2csc3nc(-c4ccc(OCc5ccccc5)cc4)nn23)cc1 | < 1 °C | < 1 °C | – | –
NC(=O)c1cccc(C(N)=O)n1 | – | – | – | ΔTm (Nucleic Acid [4]): 15 °C; ΔTm (Nucleic Acid [5]): 10 °C
Cc1oc2nc1-c1nc(co1)-c1nc(co1)-c1nc(co1)-c1nc(co1)-c1nc(co1)C1=NC(CS1)c1nc-2c(C)o1 (stereo not drawn) | – | – | – | ΔTm (Nucleic Acid [6]): 10 °C; ΔTm (Nucleic Acid [7]): 15 °C
O=C(NCCN1CCCCC1)c1ccc(-c2csc3nc(-c4ccc(OCCN5CCCCC5)cc4)nn23)cc1 | 5 °C | 11.2 °C | Active | –
Oc1ccc(-c2nc3scc(-c4ccc(O)cc4)n3n2)cc1 | < 1 °C | < 1 °C | – | –
c1cc(-c2nc3scc(-c4ccc(OCCN5CCCCC5)cc4)n3n2)ccc1OCCN1CCCCC1 | 2.1 °C | 8.7 °C | Active | –

Continued, in another order:

ΔTm (Nucleic Acid [1]) | ΔTm (Nucleic Acid [2]) | Activity (Nucleic Acid [3]) | Structure (SMILES) | also measured
5.9 °C | 14.6 °C | inactive | O=C(NCCN1CCCCC1)c1ccc(-c2csc3nc(-c4ccc(OCCN5CCCC5)cc4)nn23)cc1 | –
< 1 °C | 2.7 °C | – | O=C(NCCN1CCCCC1)c1ccc(-c2csc3nc(-c4ccc(OCc5ccccc5)cc4)nn23)cc1 | –
< 1 °C | 1.8 °C | – | O=C(NCCN1CCCCC1)c1ccc(-c2csc3nc(-c4ccc(O)cc4)nn23)cc1 | –
< 1 °C | < 1 °C | – | c1ccc(COc2ccc(-c3nc4scc(-c5ccc(OCc6ccccc6)cc5)n4n3)cc2)cc1 | –
